Measured values as given in patent US6921757B2, “Organic compounds” (Novartis AG, priority 2000, dated 2005).
Where two headings read alike, the source gives them in different places.

Experiments:
[1] = system: TNF-alpha synthesis and release from the human macrophage cell line U937; assay: Inhibition of TNF-alpha synthesis and release from the human macrophage cell line U937; format: cell-based
Excerpt: Accordingly, the invention also provides a compound of formula I for use as a pharmaceutical. […] Methods (1997) 202:49-57; Renzi et al, Am. Rev. Respir. Dis. (1993) 148:932-939; Tsuyuki et al., J. Clin. Invest. (1995) 96:2924-2931; and Cemadas et al (1999) Am. J. Respir. Cell Mol. Biol. 20:1-8.

lung eosinophilia = assay: Inhibition of lung eosinophilia in ovalbumin-sensitised Brown Norway rats; format: in vivo; details: 3 mg/kg intratracheally as dry powder lactose blend, 24 h before ovalbumin aerosol; lung lavage 24 h after challenge
Experimental: In vivo anti-inflammatory activity may be assessed by inhibition of lung eosinophilia in rats using a modification of the method of Szarka et al op cit. Male Brown Norway rats (approximately 200 g) are sensitised on day 1 with an intraperitonial injection of 0.5 ml of a mixture of ovalbumin (0.02 mg/ml) and aluminium hydroxide (20 mg/ml), followed by Acellulare pertussis adsorbat vaccine (0.2 ml of a 1:4 dilution with 0.9% saline). The procedure is repeated on day 15 and day 21. […] The lungs are removed and after lavage with Hank's solution (balanced salt solution, 100 ml; EDTA 100 mM, 100 ml; HPES 1M, 10 ml, water 1000 ml), eosinophil numbers in the recovered solution are quantified directly using a Corbas Helios 5Diff apparatus (Hoffman-LaRoche).

[2] = Systemic side effects: reduction in thymus weight on chronic administration to rats; format: in vivo, Sprague-Dawley rats
Experimental: Systemic side effects may be assessed by reduction in thymus weight on chronic administration to rats. Male Sprague-Dawley rats (approximately 250 g) are treated once daily for 4 days with the test compound administered at a dose of 1 mg/kg either orally as a hydroxypropyl cellulose suspension or intratracheally under isoflurane anaesthesia as a dry powder lactose blend. On day 5 the rats are sacrificed, autopsy is performed and the weight of the thymus is determined.

[3] = Homo sapiens, U-937, read-out: IC50 inhibition of TNF-alpha synthesis and release

SMILES	IC50 [1, 3] [nM]	reduction in eosinophil count compared to vehicle control (lung eosinophilia) [%]	IC50 ([1]; U937 human macrophage cell line, read-out: IC50 inhibition of TNF-alpha synthesis and release) [nM]	reduction in thymus weight compared to vehicle control when dosed intratracheally ([2]; 1 mg/kg intratracheally once daily for 4 days, dry powder lactose blend) [%]	reduction in thymus weight compared to vehicle control when dosed orally ([2]; 1 mg/kg orally once daily for 4 days, hydroxypropyl cellulose suspension) [%]
COC(=O)[C@@]1(OC(=O)c2sccc2C)[C@H](C)CC2C3C[C@H](F)C4=CC(=O)C=C[C@]4(C)[C@@]3(Cl)[C@@H](O)C[C@@]21C (stereo partly drawn) [Example 26, 3-methylthiophene-2-carboxylic acid (6S,9R,10S,11S,13S,16R,17R)-9-chloro-6-fluoro-11-hydroxy-17-methoxycarbonyl-10,13,16-trimethyl-3-oxo-6,7,8,9,10,11,12,13,14,15,16,17-dodecahydro-3H-cyclopenta[a]phenanthren-17-yl ester]	0.024	63			
COC(=O)[C@@]1(OC(=O)C2CC2)[C@@H](C)CC2C3C[C@H](F)C4=CC(=O)C=C[C@]4(C)[C@@]3(Cl)[C@@H](O)C[C@@]21C (stereo partly drawn) [Example 34, (6S,9R,10S,11S,13S,16S,17R)-9-chloro-17-cyclopropanecarbonyloxy-6-fluoro-11-hydroxy-10,13,16-trimethyl-3-oxo-6,7,8,9,10,11,12,13,14,15,16,17-dodecahydro-3H-cyclopenta[a]phenanthrene-17-carboxylic acid methyl ester]	0.1	90			
COC(=O)[C@@]1(OC(=O)c2cnc(C)cn2)[C@H](C)CC2C3C[C@H](F)C4=CC(=O)C=C[C@]4(C)[C@@]3(Cl)[C@@H](O)C[C@@]21C (some centres unmarked) [Example 99]		48	0.106	70	0
